# Data from patent publication US8664257B2, “Oxygen-substituted 3-heteroaroylamino-propionic acid derivatives and their use as pharmaceuticals” (Sanofi, priority 2010, dated 2014).
# Molecular target: T1, Recombinant human cathepsin A (Homo sapiens, UniProt P10619)
# T1 construct: Recombinant human cathepsin A (residues 29-480, with a C-terminal 10-His tag); 10-His (C); purchased R&D Systems 1049-SE
# T1 sequence (P10619 29-312 limits assumed): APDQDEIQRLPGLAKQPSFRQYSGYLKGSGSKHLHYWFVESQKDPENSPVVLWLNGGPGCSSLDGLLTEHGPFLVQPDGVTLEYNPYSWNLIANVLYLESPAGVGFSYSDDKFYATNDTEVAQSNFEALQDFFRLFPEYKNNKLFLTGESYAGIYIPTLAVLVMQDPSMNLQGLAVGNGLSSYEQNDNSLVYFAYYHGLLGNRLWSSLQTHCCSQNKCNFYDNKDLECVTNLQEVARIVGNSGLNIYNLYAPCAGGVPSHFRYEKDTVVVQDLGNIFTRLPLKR
# T1 sequence (P10619 327-480 limits assumed): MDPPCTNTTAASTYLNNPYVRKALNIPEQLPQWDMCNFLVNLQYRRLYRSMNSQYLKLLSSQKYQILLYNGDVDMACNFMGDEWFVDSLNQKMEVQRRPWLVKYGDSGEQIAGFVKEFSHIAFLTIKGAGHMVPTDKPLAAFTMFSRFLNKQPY
# Experiment: Cathepsin A inhibitory activity
# Type: biochemical
# Details: read-out: Activity (2): Cathepsin A inhibitory activity, IC50 class
# Experimental: a) Cathepsin A Inhibitory Activity
# Recombinant human cathepsin A (residues 29-480, with a C-terminal 10-His tag; R&D Systems, #1049-SE) was proteolytically activated with recombinant human cathepsin L (R&D Systems, #952-CY). Briefly, cathepsin A was incubated at 10 μg/ml with cathepsin L at 1 μg/ml in activation buffer (25 mM 2-(morpholin-4-yl)-ethanesulfonic acid (MES), pH 6.0, containing 5 mM dithiothreitol (DTT)) for 15 min at 37° C. Cathepsin L activity was then stopped by the addition of the cysteine protease inhibitor E-64 (N-(trans-epoxysuccinyl)-L-leucine-4-guanidinobutylamide; Sigma-Aldrich, #E3132; dissolved in activation buffer/DMSO) to a final concentration of 10 μM.
# The activated cathepsin A was diluted in assay buffer (25 mM MES, pH 5.5, containing 5 mM DTT) and mixed with the test compound (dissolved in assay buffer containing (v/v) 3% DMSO) or, in the control experiments, with the vehicle in a multiple assay plate. After incubation for 15 min at room temperature, as substrate then bradykinin carrying an N-terminal®Bodipy FL (4,4-difluoro-5,7-dimethyl-4-bora-3a,4a-diaza-s-indacene-3-propionyl) label (JPT Peptide Technologies GmbH; dissolved in assay buffer) was added to the mixture. The final concentration of cathepsin A was 833 ng/ml and the final concentration of labeled bradykinin 2 μM. After incubation for 15 min at room temperature the reaction was stopped by the addition of stop buffer (130 mM 2-(4-(2-hydroxy-ethyl)-piperazin-1-yl)-ethanesulfonic acid, pH 7.4, containing (v/v) 0.013% Triton X-100, 0.13% Coating Reagent 3 (Caliper Life Sciences), 6.5% DMSO and 20 μM ebelactone B (Sigma, # E0886)).
# Uncleaved substrate and product were then separated by a microfluidic capillary electrophoresis on a LabChip® 3000 Drug Discovery System (12-Sipper-Chip; Caliper Life Sciences) and quantified by determination of the respective peak areas. Substrate turnover was calculated by dividing product peak area by the sum of substrate and product peak areas, and the enzyme activity and the inhibitory effect of the test compound thus quantified. From the percentage of inhibition of cathepsin A activity observed with the test compound at several concentrations, the inhibitory concentration IC50, i.e. the concentration which effects 50% inhibition of enzyme activity was, calculated.
row,Structure (SMILES),IC50 [nM]
1,Cc1ccc(C)c(-n2nc(C(=O)NC(CC(=O)O)c3ccc(F)c(F)c3)cc2O)c1 (centres unmarked) [Example 47],1000 to 30000
2,Cc1ccc(C)c(-n2nc(C(=O)NC(CC(=O)O)c3ccc(Cl)c(Cl)c3)cc2O)c1 (centres unmarked) [Example 48],1000 to 30000
3,Cc1ccc(C)c(-n2nc(C(=O)NC(CC(=O)O)c3cccc(F)c3)cc2O)c1 (centres unmarked) [Example 49],1000 to 30000
4,Cc1ccc(C(CC(=O)O)NC(=O)c2cc(O)n(-c3cc(C)ccc3C)n2)cc1 (centres unmarked) [Example 50],1000 to 30000
5,Cc1cccc(C(CC(=O)O)NC(=O)c2cc(O)n(-c3cc(C)ccc3C)n2)c1 (centres unmarked) [Example 51],1000 to 30000
6,Cc1ccc(C)c(-n2nc(C(=O)NC(CC(=O)O)c3ccc(C#N)cc3)cc2O)c1 (centres unmarked) [Example 52],1000 to 30000
7,Cc1ccc(C)c(-n2nc(C(=O)NC(CC(=O)O)c3cccc(C(F)(F)F)c3)cc2O)c1 (centres unmarked) [Example 53],1000 to 30000
8,COc1ccc(C(CC(=O)O)NC(=O)c2cc(O)n(-c3cc(C)ccc3C)n2)cc1F (centres unmarked) [Example 54],1000 to 30000
9,Cc1ccc(C)c(-n2nc(C(=O)NC(CC(=O)O)c3ccc(-c4ccccc4)cc3)cc2O)c1 (centres unmarked) [Example 55],100 to 1000
10,Cc1ccc(C)c(-n2nc(C(=O)NC(CC(=O)O)c3cc(F)cc(F)c3)cc2O)c1 (centres unmarked) [Example 56],1000 to 30000
11,Cc1ccc(C)c(-n2nc(C(=O)NC(CC(=O)O)c3ccc(C(F)(F)F)cc3)cc2O)c1 (centres unmarked) [Example 57],1000 to 30000
12,O=C(O)CC(NC(=O)c1cc(O)n(-c2ccccc2)n1)c1ccc(Cl)cc1 (centres unmarked) [Example 58],100 to 1000
13,O=C(O)CC(NC(=O)c1cc(O)n(-c2ccccc2)n1)c1cc(C(F)(F)F)cc(C(F)(F)F)c1 (centres unmarked) [Example 59],1000 to 30000
14,O=C(O)CC(NC(=O)c1cc(O)n(-c2ccccc2)n1)c1ccc(F)c(F)c1 (centres unmarked) [Example 60],1000 to 30000
15,O=C(O)CC(NC(=O)c1cc(O)n(-c2ccccc2)n1)c1ccc(F)cc1 (centres unmarked) [Example 61],1000 to 30000
16,O=C(O)CC(NC(=O)c1cc(O)n(-c2ccccc2)n1)c1ccc(Cl)c(Cl)c1 (centres unmarked) [Example 62],100 to 1000
17,O=C(O)CC(NC(=O)c1cc(O)n(-c2ccccc2)n1)c1cccc(F)c1 (centres unmarked) [Example 63],1000 to 30000
18,Cc1ccc(C(CC(=O)O)NC(=O)c2cc(O)n(-c3ccccc3)n2)cc1 (centres unmarked) [Example 64],100 to 1000
19,Cc1cccc(C(CC(=O)O)NC(=O)c2cc(O)n(-c3ccccc3)n2)c1 (centres unmarked) [Example 65],100 to 1000
20,CC(C)(C)c1ccc(C(CC(=O)O)NC(=O)c2cc(O)n(-c3ccccc3)n2)cc1 (centres unmarked) [Example 66],1000 to 30000
21,O=C(O)CC(NC(=O)c1cc(O)n(-c2ccccc2)n1)c1cccc(C(F)(F)F)c1 (centres unmarked) [Example 67],100 to 1000

row,Structure (SMILES),IC50 [nM]
1,COc1ccc(C(CC(=O)O)NC(=O)c2cc(O)n(-c3ccccc3)n2)cc1F (centres unmarked) [Example 68],1000 to 30000
2,O=C(O)CC(NC(=O)c1cc(O)n(-c2ccccc2)n1)c1ccc(-c2ccccc2)cc1 (centres unmarked) [Example 69],100 to 1000
3,O=C(O)CC(NC(=O)c1cc(O)n(-c2ccccc2)n1)c1cc(F)cc(F)c1 (centres unmarked) [Example 70],1000 to 30000
4,O=C(O)CC(NC(=O)c1cc(O)n(-c2ccccc2)n1)c1ccc(C(F)(F)F)cc1 (centres unmarked) [Example 71],1000 to 30000
5,O=C(O)CC(NC(=O)c1cc(O)n(-c2ccc(F)c(Cl)c2)n1)c1ccc(F)cc1 (centres unmarked) [Example 72],1000 to 30000
6,"O=C(O)CC(NC(=O)c1cc(O)n(-c2ccc(Cl)cc2)n1)c1ccc(F)cc1 (centres unmarked) [Example 73, 3-{[1-(4-Chloro-phenyl)-5-hydroxy-1H-pyrazole-3-carbonyl]-amino}-3-(4-fluoro-phenyl)-propionic acid]",1000 to 30000
7,Cc1ccccc1[C@H](CC(=O)O)NC(=O)c1cc(O)n(-c2cccc(F)c2)n1 [Example 74],< 100
8,Cc1ccccc1[C@H](CC(=O)O)NC(=O)c1cc(O)n(-c2cccc(Cl)c2)n1 [Example 75],100 to 1000
9,Cc1ccccc1[C@H](CC(=O)O)NC(=O)c1cc(O)n(-c2ccc(F)cc2)n1 [Example 76],< 100
10,Cc1ccccc1[C@H](CC(=O)O)NC(=O)c1cc(O)n(-c2ccccc2Cl)n1 [Example 77],< 100
11,Cc1cc(C)cc(-n2nc(C(=O)NC(CC(=O)O)c3ccccc3C)cc2O)c1 (centres unmarked) [Example 78],1000 to 30000
12,Cc1ccccc1C(CC(=O)O)NC(=O)c1cc(O)n(-c2ccc(Cl)cc2)n1 (centres unmarked) [Example 79],100 to 1000
13,Cc1ccccc1C(CC(=O)O)NC(=O)c1cc(O)n(-c2ccc(F)c(Cl)c2)n1 (centres unmarked) [Example 80],100 to 1000
14,Cc1ccccc1[C@H](CC(=O)O)NC(=O)c1cc(O)n(-c2ccccc2)n1 [Example 82],< 100
15,Cc1ccccc1[C@@H](CC(=O)O)NC(=O)c1cc(O)n(-c2ccccc2)n1 [Example 83],1000 to 30000
16,Cc1ccc(C(CC(=O)O)NC(=O)c2cc(O)n(-c3ccccc3)n2)c(C)c1 (centres unmarked) [Example 84],100 to 1000
17,Cc1cc(F)ccc1C(CC(=O)O)NC(=O)c1cc(O)n(-c2ccccc2)n1 (centres unmarked) [Example 85],100 to 1000
18,O=C(O)CC(NC(=O)c1cc(O)n(-c2ccc(F)cc2)n1)c1ccc(F)cc1F (centres unmarked) [Example 86],1000 to 30000
19,COc1ccc(-n2nc(C(=O)N[C@@H](CC(=O)O)c3ccccc3C)cc2O)cc1 [Example 87],100 to 1000
20,COc1ccc(C(CC(=O)O)NC(=O)c2cc(O)n(-c3ccc(F)c(Cl)c3)n2)c(F)c1 (centres unmarked) [Example 88],1000 to 30000
21,Cc1ccc(C(CC(=O)O)NC(=O)c2cc(O)n(-c3ccc(F)cc3)n2)c(C)c1 (centres unmarked) [Example 89],100 to 1000

row,Structure (SMILES),IC50 [nM]
1,COc1ccc(C(CC(=O)O)NC(=O)c2cc(O)n(-c3ccc(F)cc3)n2)c(F)c1 (centres unmarked) [Example 90],1000 to 30000
2,Cc1ccc(C(CC(=O)O)NC(=O)c2cc(O)n(-c3ccc(F)c(Cl)c3)n2)c(C)c1 (centres unmarked) [Example 91],1000 to 30000
3,COc1ccc(C(CC(=O)O)NC(=O)c2cc(O)n(-c3ccccc3)n2)c(F)c1 (centres unmarked) [Example 92],100 to 1000
4,COc1cccc(-n2nc(C(=O)N[C@@H](CC(=O)O)c3ccccc3C)cc2O)c1 [Example 94],100 to 1000
5,O=C(O)C[C@H](NC(=O)c1cc(O)n(-c2ccccc2)n1)c1ccc(Cl)cc1Cl [Example 95],100 to 1000
6,O=C(O)C[C@H](NC(=O)c1cc(O)n(-c2ccccc2)n1)c1ccccc1F [Example 96],100 to 1000
7,O=C(O)C[C@H](NC(=O)c1cc(O)n(-c2ccccc2)n1)c1ccccc1C(F)(F)F [Example 97],100 to 1000
8,O=C(O)C[C@H](NC(=O)c1cc(O)n(-c2ccccc2)n1)c1ccc(Cl)cc1 [Example 98],100 to 1000
9,O=C(O)C[C@H](NC(=O)c1cc(O)n(-c2ccccc2)n1)c1ccc(C(F)(F)F)cc1 [Example 99],100 to 1000
10,COc1ccccc1[C@H](CC(=O)O)NC(=O)c1cc(O)n(-c2ccccc2)n1 [Example 100],100 to 1000
11,N#Cc1ccc([C@H](CC(=O)O)NC(=O)c2cc(O)n(-c3ccccc3)n2)cc1 [Example 101],100 to 1000
12,O=C(O)CC(NC(=O)c1cc(O)n(-c2ccccc2)n1)c1ccc(Oc2ccccc2)cc1 (centres unmarked) [Example 102],100 to 1000
13,O=C(O)C[C@H](NC(=O)c1cc(O)n(-c2ccccc2)n1)c1c(F)cccc1F [Example 103],100 to 1000
14,O=C(O)CC(NC(=O)c1cc(O)n(-c2ccccc2)n1)c1ccc(-c2ccc(F)cc2)cc1 (centres unmarked) [Example 104],100 to 1000
15,O=C(O)CC(NC(=O)c1cc(O)n(-c2ccccc2)n1)c1ccc(-n2ccnc2)cc1 (centres unmarked) [Example 105],1000 to 30000
16,O=C(O)C[C@H](NC(=O)c1cc(O)n(-c2ccccc2Cl)n1)c1ccc(Cl)cc1Cl [Example 106],100 to 1000
17,O=C(O)C[C@H](NC(=O)c1cc(O)n(-c2ccccc2Cl)n1)c1ccccc1F [Example 107],100 to 1000
18,O=C(O)C[C@H](NC(=O)c1cc(O)n(-c2ccccc2Cl)n1)c1ccccc1C(F)(F)F [Example 108],100 to 1000
19,O=C(O)C[C@H](NC(=O)c1cc(O)n(-c2ccccc2Cl)n1)c1ccc(Cl)cc1 [Example 109],100 to 1000
20,O=C(O)C[C@H](NC(=O)c1cc(O)n(-c2ccccc2Cl)n1)c1ccc(C(F)(F)F)cc1 [Example 110],100 to 1000
